One series can be described thus: in vitro. The note with it: African green monkey.
Series [1] has as its system SARS-CoV-2 "NRC-03-nhCoV". As to the kind of experiment: microbe, parasite or virus in culture. Type of series: cell-based.
The subject of series [2] is NRC-03-nhCoV in Vero-E6 cells. As to the kind of experiment: microbe, parasite or virus in culture. The note with it: Severe acute respiratory syndrome coronavirus 2, Vero C1008, read-out: Half maximal inhibitory concentration (IC50) against NRC-03-nhCoV. The format is cell-based, SARS-CoV-2.
The subject of the next series is MERS-CoV "NRCE-HKU270". As to the kind of experiment: microbe, parasite or virus in culture. Type of series: cell-based. The note with it: for IC50: Middle East respiratory syndrome-related coronavirus, Vero C1008, read-out: Antiviral Activities MERS-CoV IC50 (µM).
The subject of another series is SARS-CoV-2. The note with it: read-out: IC50 of FDA-approved drugs applied in COVID-19 treatment protocols; cited from earlier work.
The mark [3] stands for this setting: Severe acute respiratory syndrome coronavirus 2, Vero C1008, read-out: Antiviral Activities SARS-CoV-2 IC50 (µM).
The mark [4] stands for this setting: read-out: Antiviral Activities SARS-CoV-2 IC50.

The structures appear in SMILES notation. Read-outs that look alike come from different tables or passages of the source.

On to `CCC(CC)COC(=O)[C@H](C)N[P@](=O)(OC[C@H]1O[C@@](C#N)(c2ccc3c(N)ncnn23)[C@H](O)[C@@H]1O)Oc1ccccc1` [Remdesivir, reference compound], for which the CC50 (commonly the concentration at which the toxic effect on the cells reaches its halfway point) in the series “in vitro” (Cytotoxicity (CC50, µM)) is 473 µM. The “Antiviral Activities SARS-CoV-2 SI (selectivity index)” value in series [1] is reported as 70.40. In addition, the IC50 turned out to be 6.72 µM in series [1] (setting [3]), 6.72 µM in series [2] and 2.74 µM in the series with MERS-CoV "NRCE-HKU270". Also, the “Antiviral Activities MERS-CoV SI (selectivity index)” value with MERS-CoV "NRCE-HKU270" came to 172.66.
Regarding `CC[C@H]1OC(=O)[C@H](C)[C@@H](O[C@H]2C[C@@](C)(OC)[C@@H](O)[C@H](C)O2)[C@H](C)[C@@H](O[C@@H]2O[C@H](C)C[C@H](N(C)C)[C@H]2O)[C@](C)(O)C[C@@H](C)CN(C)[C@H](C)[C@@H](O)[C@]1(C)O` [Azithromycin], the IC50 in the series on SARS-CoV-2 is 2.12 µM.
`O=C1Nc2ccc([N+](=O)[O-])cc2[C@]12C[C@@H](S(=O)(=O)c1ccccc1)[C@H]1C[C@H](O)CN12` [Compound 4c, (1’R,3R,6’S,7a’R)-6’-Hydroxy-5-nitro-1’-(phenylsulfonyl)-1’,2’,5’,6’,7’,7a’-hexahydrospiro[indoline-3,3’-pyrrolizin]-2-one] returned a CC50 in the series “in vitro” (Cytotoxicity (CC50, µM)) of 1100 µM. The IC50 in series [1] (setting [3]) is 17 µM; in series [1] (setting [4]), 18 µM; in series [2] it was 8.79 µM; in the series on MERS-CoV "NRCE-HKU270", 65 µM. In addition, the “Antiviral Activities MERS-CoV SI (selectivity index)” value in the series with MERS-CoV "NRCE-HKU270" is on record as 16.84.
Consider `O=C1Nc2ccc(Br)cc2[C@]12C[C@@H](S(=O)(=O)c1ccccc1)[C@H]1C[C@H](O)CN12` [Compound 4d, (1’R,3R,6’S,7a’R)-5-Bromo-6’-hydroxy-1’-(phenylsulfonyl)-1’,2’,5’,6’,7’,7a’-hexahydrospiro[indoline-3,3’-pyrrolizin]-2-one], for which the melting point (commonly the temperature of the solid-liquid transition) amounted to 220 °C. In the series “in vitro” (Cytotoxicity (CC50, µM)), this molecule displayed a CC50 of 206 µM. Further, in series [1], the “Antiviral Activities SARS-CoV-2 SI (selectivity index)” value is recorded as 8.58. The IC50 in series [1] (setting [3]) turned out to be 24 µM. Further, in the series with MERS-CoV "NRCE-HKU270", the “Antiviral Activities MERS-CoV SI (selectivity index)” value was found to be 8.95 and the IC50 came out at 23 µM.
Consider `O=C1Nc2ccc(Cl)cc2[C@]12C[C@@H](S(=O)(=O)c1ccccc1)[C@H]1CCCN12` [Compound 4g, (1’R,3R,7a’R)-5-Chloro-1’-(phenylsulfonyl)-1’,2’,5’,6’,7’,7a’-hexahydrospiro[indoline-3,3’-pyrrolizin]-2-one], for which the melting point is 254 °C. The same molecule yielded a CC50 in the series “in vitro” (Cytotoxicity (CC50, µM)) of 405 µM. For the same molecule, the “Antiviral Activities SARS-CoV-2 SI (selectivity index)” value in series [1] was 1. The IC50 in series [1] (setting [3]) was 405 µM. Moreover, in the series on MERS-CoV "NRCE-HKU270", the “Antiviral Activities MERS-CoV SI (selectivity index)” value is 3.97 and the IC50 stood at 101 µM.
For the molecule `O=C1Nc2cc(Cl)ccc2[C@]12C[C@@H](S(=O)(=O)c1ccccc1)[C@H]1CSCN12` [Compound 4n, (3R,7’R,7a’R)-6-Chloro-7’-(phenylsulfonyl)-1’,6’,7’,7a’-tetrahydro-3’H-spiro[indoline-3,5’-pyrrolo [1,2-c]thiazole]-2-one], the midpoint of cytotoxicity in “in vitro” (Cytotoxicity (CC50, µM)), the CC50, lay at 222 µM. The IC50 in series [1] (setting [3]) stood at 667 µM; in the series on MERS-CoV "NRCE-HKU270", 15 µM.
Consider `O=C1Nc2ccc(Cl)cc2[C@]12C[C@@H](S(=O)(=O)c1ccccc1)[C@H]1CSCN12` [Compound 4b, (3R,7’R,7a’R)-5-Chloro-7’-(phenylsulfonyl)-1’,6’,7’,7a’-tetrahydro-3’H-spiro[indoline-3,5’-pyrrolo [1,2-c]thiazole]-2-one], for which the melting point amounted to 282 °C. Also, it took 1040 µM to reach half-maximal cytotoxicity in “in vitro” (Cytotoxicity (CC50, µM)) (CC50). For the same molecule, the “Antiviral Activities SARS-CoV-2 SI (selectivity index)” value in series [1] is reported as 5.38. Further, the IC50 in series [1] (setting [3]) was found to be 194 µM. Besides, in the series on MERS-CoV "NRCE-HKU270", the “Antiviral Activities MERS-CoV SI (selectivity index)” value amounted to 9.95 and the IC50 turned out to be 105 µM.
On to `COc1ccc2c(c1)[C@]1(C[C@@H](S(=O)(=O)c3ccccc3)[C@H]3CSCN31)C(=O)N2` [Compound 4f, (3R,7’R,7a’R)-5-Methoxy-7’-(phenylsulfonyl)-1’,6’,7’,7a’-tetrahydro-3’H-spiro[indoline-3,5’-pyrrolo [1,2-c]thiazole]-2-one], for which the melting point came to 105 °C. In addition, the CC50 in “in vitro” (Cytotoxicity (CC50, µM)) worked out at 345 µM. Moreover, the “Antiviral Activities SARS-CoV-2 SI (selectivity index)” value in series [1] was less than 1. Further, the IC50 in series [1] (setting [3]) was found to be 2250 µM. For the same molecule, in the series with MERS-CoV "NRCE-HKU270", the “Antiviral Activities MERS-CoV SI (selectivity index)” value was 3.92 and the IC50 came to 88 µM.
In the case of `O=C1Nc2cc(Cl)ccc2[C@]12C[C@@H](S(=O)(=O)c1ccccc1)[C@H]1CCCN12` [Compound 4m], the CC50 in “in vitro” (Cytotoxicity (CC50, µM)) amounted to 225 µM. For the same molecule, in series [1], the “Antiviral Activities SARS-CoV-2 SI (selectivity index)” value is reported as less than 1. Moreover, the IC50 in series [1] (setting [3]) amounted to 305 µM. In addition, in the series on MERS-CoV "NRCE-HKU270", the “Antiviral Activities MERS-CoV SI (selectivity index)” value worked out at 1.17 and the IC50 was 191 µM.
`O=C1Nc2ccccc2[C@]12C[C@@H](S(=O)(=O)c1ccccc1)[C@H]1CCCN12` [Compound 4a, (1’R,3R,7a’R)-1’-(Phenylsulfonyl)-1’,2’,5’,6’,7’,7a’-hexahydrospiro[indoline-3,3’-pyrrolizin]-2-one] displayed a melting point of 298 °C. Moreover, it took 326 µM to reach half-maximal cytotoxicity in the series “in vitro” (Cytotoxicity (CC50, µM)) (CC50). In addition, in series [1], the “Antiviral Activities SARS-CoV-2 SI (selectivity index)” value is on record as 11.24. In addition, the IC50 in series [1] (setting [3]) was 29 µM. Besides, in the series with MERS-CoV "NRCE-HKU270", the “Antiviral Activities MERS-CoV SI (selectivity index)” value worked out at 5.25 and the IC50 is 62 µM.
The molecule `O=C1Nc2ccc(Br)cc2[C@]12C[C@@H](S(=O)(=O)c1ccccc1)[C@H]1CCCN12` [Compound 4j, (1’R,3R,7a’R)-5-Bromo-1’-(phenylsulfonyl)-1’,2’,5’,6’,7’,7a’-hexahydrospiro[indoline-3,3’-pyrrolizin]-2-one] came in with a melting point of 250 °C. The molecule also yielded a CC50 in the series “in vitro” (Cytotoxicity (CC50, µM)) of 200 µM. Further, the “Antiviral Activities SARS-CoV-2 SI (selectivity index)” value in series [1] is 1.01. For the same molecule, in series [1] (setting [3]), the IC50 was found to be 197 µM. Moreover, in the series with MERS-CoV "NRCE-HKU270", the “Antiviral Activities MERS-CoV SI (selectivity index)” value is on record as less than 1 and the IC50 came out at 376 µM.
Turning to `O=C1Nc2ccc([N+](=O)[O-])cc2[C@]12C[C@@H](S(=O)(=O)c1ccccc1)[C@H]1CSCN12` [Compound 4e, (3R,7’R,7a’R)-5-Nitro-7’-(phenylsulfonyl)-1’,6’,7’,7a’-tetrahydro-3’H-spiro[indoline-3,5’-pyrrolo [1,2-c]thiazole]-2-one], the melting point is 95 °C. For the same molecule, it took 289 µM to reach half-maximal cytotoxicity in the series “in vitro” (Cytotoxicity (CC50, µM)) (CC50). In series [1], the “Antiviral Activities SARS-CoV-2 SI (selectivity index)” value is reported as 17. The IC50 in series [1] (setting [3]) came out at 18 µM. Moreover, the IC50 in series [1] (setting [4]) turned out to be 17 µM. In addition, in the series with MERS-CoV "NRCE-HKU270", the “Antiviral Activities MERS-CoV SI (selectivity index)” value was determined as 3.90 and the IC50 came out at 74 µM.
With `O=C1Nc2ccccc2[C@]12C[C@@H](S(=O)(=O)c1ccccc1)[C@H]1CSCN12` [Compound 4i, (3R,7’R,7a’R)-7’-(Phenylsulfonyl)-1’,6’,7’,7a’-tetrahydro-3’H-spiro[indoline-3,5’-pyrrolo [1,2-c]thiazole]-2-one], in “in vitro” (Cytotoxicity (CC50, µM)), it took 1990 µM to reach half-maximal cytotoxicity (CC50). The IC50 in series [1] (setting [3]) amounted to 34 µM; in series [2], 14.7 µM; with MERS-CoV "NRCE-HKU270", 11 µM.
Regarding `COc1ccc2c(c1)[C@]1(C[C@@H](S(=O)(=O)c3ccccc3)[C@H]3CCCN31)C(=O)N2` [Compound 4h, (1’R,3R,7a’R)-5-Methoxy-1’-(phenylsulfonyl)-1’,2’,5’,6’,7’,7a’-hexahydrospiro[indoline-3,3’-pyrrolizin]-2-one], the melting point amounted to 240 °C. It took 571 µM to reach half-maximal cytotoxicity in the series “in vitro” (Cytotoxicity (CC50, µM)) (CC50). For the same molecule, in series [1], the “Antiviral Activities SARS-CoV-2 SI (selectivity index)” value came to 15.43. In series [1] (setting [3]), the IC50 was 37 µM. Besides, in the series with MERS-CoV "NRCE-HKU270", the “Antiviral Activities MERS-CoV SI (selectivity index)” value turned out to be 38.06 and the IC50 was 15 µM.
In the case of `CC(C)c1nc(CN(C)C(=O)N[C@H](C(=O)N[C@@H](Cc2ccccc2)C[C@H](O)[C@H](Cc2ccccc2)NC(=O)OCc2cncs2)C(C)C)cs1` [Ritonavir], in the series with SARS-CoV-2, the IC50 is not below 100 µM.
Take `O=C1N(CCBr)c2ccccc2[C@]12C[C@@H](S(=O)(=O)c1ccccc1)[C@H]1CCCN12` [Compound 4l, (1’R,3R,7a’R)-1-(2-Bromoethyl)-1’-(phenylsulfonyl)-1’,2’,5’,6’,7’,7a’-hexahydrospiro[indoline-3,3’-pyrrolizin]-2-one]: the melting point was 70 °C. The same molecule showed a CC50 in “in vitro” (Cytotoxicity (CC50, µM)) of 206 µM. The “Antiviral Activities SARS-CoV-2 SI (selectivity index)” value in series [1] was 1.92. For the same molecule, the IC50 in series [1] (setting [3]) was found to be 107 µM. For the same molecule, in the series on MERS-CoV "NRCE-HKU270", the “Antiviral Activities MERS-CoV SI (selectivity index)” value is 1.41 and the IC50 came out at 146 µM.
On to `CN1C(=O)[C@@]2(C[C@@H](S(=O)(=O)c3ccccc3)[C@H]3CCCN32)c2ccccc21` [Compound 4k, (1’R,3R,7a’R)-1-Methyl-1’-(phenylsulfonyl)-1’,2’,5’,6’,7’,7a’-hexahydrospiro[indoline-3,3’-pyrrolizin]-2-one], for which the CC50 was 883 µM in “in vitro” (Cytotoxicity (CC50, µM)) and 882 µM in the series “in vitro” (Half maximal cytotoxic concentration (CC50)). In addition, the figures for the IC50 (in series [1] (setting [3]); in series [2]; with MERS-CoV "NRCE-HKU270") were 27 µM, 5.98 µM and 66 µM, respectively. Further, the “Antiviral Activities MERS-CoV SI (selectivity index)” value with MERS-CoV "NRCE-HKU270" was found to be 13.37.
As to `NC(=O)c1ncn([C@@H]2O[C@H](CO)[C@@H](O)[C@H]2O)n1` [Ribavirin], the IC50 in the series on SARS-CoV-2 is 70 µM.

Values taken from article PMC9569468 (International Journal of Molecular Sciences, 2022).
